Where two headings read alike, the source gives them in different places.
Legend:
[1] = target: T1, ADAAD (Bos taurus, UniProt Q9TTA5); settings: ADAAD alone; His-ADAAD; ref Nongkhlaw et al. (Nongkhlaw, 2009); cited from earlier work
T1 sequence (Q9TTA5 229-940 limits assumed): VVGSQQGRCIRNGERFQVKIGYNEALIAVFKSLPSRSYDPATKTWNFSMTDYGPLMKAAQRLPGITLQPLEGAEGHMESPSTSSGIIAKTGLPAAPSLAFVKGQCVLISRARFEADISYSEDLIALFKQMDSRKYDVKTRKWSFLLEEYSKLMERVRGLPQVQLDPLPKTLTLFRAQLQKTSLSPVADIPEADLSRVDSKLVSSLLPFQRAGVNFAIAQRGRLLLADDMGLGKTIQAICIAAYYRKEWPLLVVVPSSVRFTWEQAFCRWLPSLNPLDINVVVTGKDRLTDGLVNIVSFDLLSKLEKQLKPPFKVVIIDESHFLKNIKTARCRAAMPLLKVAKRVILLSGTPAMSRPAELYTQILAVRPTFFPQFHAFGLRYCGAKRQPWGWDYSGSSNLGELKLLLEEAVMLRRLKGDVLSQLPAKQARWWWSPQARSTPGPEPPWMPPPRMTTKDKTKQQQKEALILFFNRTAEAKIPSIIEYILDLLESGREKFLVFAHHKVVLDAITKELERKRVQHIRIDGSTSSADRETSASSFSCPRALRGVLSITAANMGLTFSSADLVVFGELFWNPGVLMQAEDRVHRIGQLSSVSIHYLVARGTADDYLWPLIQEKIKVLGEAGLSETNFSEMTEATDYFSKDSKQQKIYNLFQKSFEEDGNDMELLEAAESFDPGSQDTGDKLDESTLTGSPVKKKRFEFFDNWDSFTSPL

[2] = target: T1, ADAAD; assay: Intrinsic tryptophan fluorescence quenching binding titration with His-ADAAD
Protocol: His-ADAAD, used for binding studies, was purified as described previously. For mapping and CD studies, ADAAD as well as deletion constructs were expressed as GST-fusion protein in BL21 (DE3) cells and purified as described previously. In case of deletion constructs the GST-tag was not cleaved as the resultant proteins were not stable.
Fluorescence was measured at 25°C using Cary-Varian spectrofluorimeter as described previously. Stem-loop DNA (5′- […]-3′), synthesized by Sigma-Aldrich, was used in these studies. The intrinsic fluorescence quenching data obtained with acrylamide was analyzed using Stern-Volmer plots as described previously, [14].
To understand the interaction of ADAADi with ADAAD, a member of the SWI2/SNF2 family, we synthesized ADAADi using kanamycin and neomycin. These derivatives, ADAADiK and ADAADiN respectively, were purified and titrated with protein while monitoring the quenching of the intrinsic tryptophan fluorescence. […] This binding constant was same as that in the absence of ATP and slDNA. A similar result was obtained with ADAADiK (Figure S3A and S3B; Table 1). We thus conclude that the interaction of the inhibitor with ADAAD is independent of these two ligands.

For `Nc1ncnc2c1ncn2[C@@H]1O[C@H](COP(=O)(O)OP(=O)(O)OP(=O)(O)O)[C@@H](O)[C@H]1O` [ATP], the Kd [1] is given as 1.6 µM, the Kd [2] is given as 0.1 ± 0.003 µM and the “fold higher affinity than in the absence of the inhibitor” value ([2]; in the presence of ADAADiK) is given as 10 fold. For the same compound, the “fold higher affinity than in the absence of the inhibitor” value ([2]; in the presence of ADAADiN) was 10 fold.
